Measurements: PMC6533141 (Chemical biology & drug design, 2019)
pIC50, pKi: −log10 of the molar value.

Key:
[1] = molecular target: T1, HAT1 (Homo sapiens, UniProt O14929); experiment: Scintillation proximity assay; format: biochemical; settings: SPA, 40 nM HAT1, […] H4-20 BTN, 1 µM [3H]AcCoA, 30°C, 20 min; for pKi: calculated from Kiapp (Equation 2); for pIC50: calculated from Kiapp (Equation 3)
T1 sequence (O14929 20-341): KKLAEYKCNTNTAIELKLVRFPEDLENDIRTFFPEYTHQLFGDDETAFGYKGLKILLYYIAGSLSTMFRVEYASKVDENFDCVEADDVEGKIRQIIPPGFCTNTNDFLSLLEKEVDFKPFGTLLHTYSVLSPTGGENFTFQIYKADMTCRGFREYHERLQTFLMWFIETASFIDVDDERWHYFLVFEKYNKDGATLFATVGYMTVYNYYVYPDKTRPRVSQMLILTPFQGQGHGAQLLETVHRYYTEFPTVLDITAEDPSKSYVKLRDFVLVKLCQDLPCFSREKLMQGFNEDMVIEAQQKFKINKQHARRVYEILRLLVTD

[2] = tested on: p300; settings: cited from earlier work

pKi [1]	pIC50 [1]	SMILES	pIC50 [2]	pKi ([2]; previous study)
4.58	4.13	CC(=O)N[C@@H](CCCCNC(=O)CSCCNC(=O)CCNC(=O)[C@H](O)C(C)(C)COP(=O)(O)OP(=O)(O)OC[C@H]1O[C@@H](n2cnc3c(N)ncnc32)[C@H](O)[C@@H]1OP(=O)(O)O)C(N)=O [Lys-CoA, Ac-Lys(CoA)-NH2]	6.30	7.72
4.84	4.38	CC(C)(COP(=O)(O)OP(=O)(O)OC[C@H]1O[C@@H](n2cnc3c(N)ncnc32)[C@H](O)[C@@H]1OP(=O)(O)O)[C@@H](O)C(=O)NCCC(=O)NCCS [CoA]		
